From patent US6806276B2, “2-oxoquinoline compounds and pharmaceutical uses thereof” (Japan Tobacco Inc., priority 1999, dated 2004) come the findings set out here.

In experiment [1] the target is T1, human peripheral type cannabinoid receptor (hCB2) (Homo sapiens, UniProt P34972).
T1 construct: expressed in transfected cells; host or cells: CHO cells
The experiment is described as follows: Binding assay (in vitro), [3H]Win55212-2 displacement, membrane fractions of human CB2-CHO. The settings on record: for Ki: hCB2 expressed in CHO cells, [3H]Win55212-2 2 nM, 30° C. 90 minutes.
Protocol: (§1) Membrane fractions of human central type cannabinoid receptor (human CB1-CHO, hereinafter called hCB1) and human peripheral type cannabinoid receptor (human CB2-CHO, hereinafter called hCB2) expressed in CHO cells were used as samples. The reference material (hCB1: 20 μg/ml, hCB2: 5 μg/ml), labeled ligand ([^3H]Win55212-2, 2 nM) and unlabeled ligand Win55212-2 or test compound were added to a 24-well round bottom plate, and the plate was incubated at 30° C. for 90 minutes. 50 mM Tris-HB55 containing 0.2% BSA was used as an assay buffer. After incubation, the mixture was filtered (Packard, Unifilter 24GF/B) and dried, and then a scintillation solution (Packard, Microsint-20) was added thereto to determine the radioactivity of the sample (Packard, Top count A9912V). Nonspecific binding was determined by the addition of excessive amount of Win55212-2 (10 μM), and specific binding was calculated by subtracting the nonspecific binding from total binding determined by the addition of the labeled ligand only. The test compound was dissolved in DMSO to make the final concentration in DMSO to be 0.1%. IC50 value was determined from the proportion of the bound test compound in the specific binding, and K1 value of the test compound was calculated from the ICso value and Kd value of [^3H]Win55212-2. K1 value for the central type receptors/K1 value for peripheral type receptors (C/S) was also calculated as an indicator of the selectivity of the test compound for peripheral type receptors.

In experiment [2] the target is T2, human central type cannabinoid receptor (hCB1) (Homo sapiens, UniProt P21554).
T2 construct: expressed in transfected cells; host or cells: CHO cells
The experiment is described as follows: Binding assay (in vitro), [3H]Win55212-2 displacement, membrane fractions of human CB1-CHO. As to conditions: hCB1 expressed in CHO cells, [3H]Win55212-2 2 nM, 30° C. 90 minutes.
Protocol: as §1

Setting [3] is: Ki value Peripheral type receptor (S).
The mark [4] stands for this setting: indicator of selectivity for peripheral type receptors.
[5] abbreviates: Ki value Central type receptor (C).
The mark [6] stands for this setting: read-out: Ki value Peripheral type receptor (S).
[7] abbreviates: read-out: Ki value Central type receptor (C).

Like-named read-outs stand apart in the source and are kept apart here.

T2 sequence (P21554 whole entry): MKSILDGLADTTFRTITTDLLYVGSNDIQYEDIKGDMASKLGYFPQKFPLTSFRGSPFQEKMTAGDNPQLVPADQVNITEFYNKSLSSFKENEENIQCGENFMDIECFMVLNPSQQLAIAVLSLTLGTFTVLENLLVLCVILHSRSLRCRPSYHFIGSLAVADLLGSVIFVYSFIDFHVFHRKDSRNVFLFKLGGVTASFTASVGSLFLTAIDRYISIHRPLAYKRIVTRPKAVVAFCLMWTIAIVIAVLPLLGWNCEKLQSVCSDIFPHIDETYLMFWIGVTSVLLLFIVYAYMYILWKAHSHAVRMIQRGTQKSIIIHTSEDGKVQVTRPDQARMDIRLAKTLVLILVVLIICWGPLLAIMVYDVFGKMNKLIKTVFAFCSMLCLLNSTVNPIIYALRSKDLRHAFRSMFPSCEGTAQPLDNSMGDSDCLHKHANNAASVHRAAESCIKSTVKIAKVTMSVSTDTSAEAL
T1 sequence (P34972 whole entry): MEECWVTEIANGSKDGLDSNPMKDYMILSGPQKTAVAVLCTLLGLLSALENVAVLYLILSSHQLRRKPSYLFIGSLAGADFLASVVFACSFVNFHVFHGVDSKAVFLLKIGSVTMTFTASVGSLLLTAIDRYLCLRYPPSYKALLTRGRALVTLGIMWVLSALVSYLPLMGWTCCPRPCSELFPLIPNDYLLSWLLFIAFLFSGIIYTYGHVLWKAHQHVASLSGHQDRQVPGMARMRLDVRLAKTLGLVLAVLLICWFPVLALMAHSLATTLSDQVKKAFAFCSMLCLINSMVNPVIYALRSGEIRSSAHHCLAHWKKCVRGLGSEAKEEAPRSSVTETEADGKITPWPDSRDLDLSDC

As usually defined, the Ki is the equilibrium dissociation constant of an inhibitor or competing ligand from its target. Take `CCCCCOc1c(OC)ccc2cc(C(=O)NCCc3ccc(O)cc3)c(=O)[nH]c12` [Example 3-7, 7-methoxy-2-oxo-8-pentyloxy-1,2-dihydroquinoline-3-carboxylic acid [2-(4-hydroxyphenyl)ethyl]amide]: the Ki in experiment [1] (setting [3]) was determined as 0.48 nM; in experiment [2] (setting [5]) it was 72 nM. In experiment [1] (setting [4]), the “C/S (Ki central type receptors / Ki peripheral type receptors)” value is on record as 150.

For `CCCCCOc1c(OC)ccc2cc(C(=O)NCCc3ccc(F)cc3)c(=O)[nH]c12` [Example 3-8, 7-methoxy-2-oxo-8-pentyloxy-1,2-dihydroquinoline-3-carboxylic acid [2-(4-fluorophenyl)ethyl]amide], the Ki in experiment [1] (setting [3]) is 0.019 nM; in experiment [2] (setting [5]), 81 nM. In experiment [1] (setting [4]), the “C/S (Ki central type receptors / Ki peripheral type receptors)” value stood at 4275.

As for `CCOc1c(OC)ccc2cc(CN3CCOCC3)c(=O)[nH]c12` [Example 7-3, 8-ethoxy-7-methoxy-3-morpholinomethyl-2-oxo-1,2-dihydroquinoline], the Ki in experiment [1] (setting [6]) is 0.062 nM; in experiment [2] (setting [7]), 666 nM. The “C/S (Ki central type receptors / Ki peripheral type receptors)” value in experiment [1] (setting [4]) came out at 10735.

In the case of `CCCCCOc1cc2cc(C(=O)NCCN3CCOCC3)c(=O)[nH]c2cc1OC` [Example 3-34, 7-methoxy-2-oxo-6-pentyloxy-1,2-dihydroquinoline-3-carboxylic acid (2-morpholinoethyl) amide], in experiment [1] (setting [3]), the affinity corresponds to a Ki of 0.011 nM. The “C/S (Ki central type receptors / Ki peripheral type receptors)” value in experiment [1] (setting [4]) stood at 15672.

As to `CCCCCOc1cc2cc(C(=O)OC)c(=O)n(C)c2cc1OC` [Example 1-4, 1-methyl-7-methoxy-2-oxo-6-pentyloxy-1,2-dihydroquinoline-3-carboxylic acid methyl ester], the Ki worked out at 4.49 nM in experiment [1] (setting [3]) and 1630 nM in experiment [2] (setting [7]). For the same compound, the “C/S (Ki central type receptors / Ki peripheral type receptors)” value in experiment [1] (setting [4]) was 362.

As to `CCCCCOc1c(OC)ccc2cc(C(=O)NCCc3ccccc3)c(=O)[nH]c12` [Example 3-23, 7-methoxy-2-oxo-8-pentyloxy-1,2-dihydroquinoline-3-carboxylic acid (2-phenylethyl)amide], the values for the Ki in experiment [1] (setting [6]) and in experiment [2] (setting [7]) were 0.2 nM and 39 nM, respectively. Also, in experiment [1] (setting [4]), the “C/S (Ki central type receptors / Ki peripheral type receptors)” value is 194.

With `CCCCCOc1cc2cc(C(=O)NCCc3ccc(F)cc3)c(=O)[nH]c2cc1OC` [Example 3-32, 7-methoxy-2-oxo-6-pentyloxy-1,2-dihydroquinoline-3-carboxylic acid [2-(4-fluorophenyl)ethyl]amide], the Ki was found to be 0.036 nM in experiment [1] (setting [3]) and 2400 nM in experiment [2] (setting [7]). Besides, the “C/S (Ki central type receptors / Ki peripheral type receptors)” value in experiment [1] (setting [4]) was determined as 66604.

Consider `CCOc1c(OC)ccc2cc(COC(=O)Nc3ccncc3)c(=O)[nH]c12` [Example 6-2, N-pyridine-4-ylcarbamic acid (8-ethoxy-7-methoxy-2-oxo-1,2-dihydroquinoline-3-yl)methyl ester], for which the results for the Ki in experiment [1] (setting [6]) and in experiment [2] (setting [7]) were 0.034 nM and 437 nM, respectively. Moreover, in experiment [1] (setting [4]), the “C/S (Ki central type receptors / Ki peripheral type receptors)” value is recorded as 12866.

For the compound `CCCCCOc1cc2cc(C(=O)NCCc3ccc(F)cc3)c(=O)n(C)c2cc1OC` [Example 3-43, 1-methyl-7-methoxy-2-oxo-6-pentyloxy-1,2-dihydroquinoline-3-carboxylic acid [2-(4-fluorophenyl)ethyl]amide], the Ki was 0.043 nM in experiment [1] (setting [3]) and 864 nM in experiment [2] (setting [7]). For the same compound, the “C/S (Ki central type receptors / Ki peripheral type receptors)” value in experiment [1] (setting [4]) is 20093.

For `CCCCCOc1c(OC)ccc2cc(C(=O)NCCc3cccc(F)c3)c(=O)[nH]c12` [Example 3-20, 7-methoxy-2-oxo-8-pentyloxy-1,2-dihydroquinoline-3-carboxylic acid [2-(3-fluorophenyl)ethyl]amide], the “C/S (Ki central type receptors / Ki peripheral type receptors)” value in experiment [1] is given as 191. The Ki in experiment [1] (setting [3]) amounted to 0.41 nM; in experiment [2] (setting [5]), 78 nM.

`CCCCCOc1c(OC)ccc2cc(C(=O)NCCc3ccc(O)cc3)c(=O)n(C)c12` [Example 3-41, 1-methyl-7-methoxy-2-oxo-8-pentyloxy-1,2-dihydroquinoline-3-carboxylic acid [2-(4-hydroxyphenyl)ethyl]amide]: the Ki in experiment [1] (setting [3]) amounted to 0.35 nM; in experiment [2] (setting [5]), 62 nM. Besides, the “C/S (Ki central type receptors / Ki peripheral type receptors)” value in experiment [1] (setting [4]) came to 176.

`COc1ccc2cc(C(=O)NCCc3ccc(F)cc3)c(=O)[nH]c2c1OC` [Example 3-31, 7,8-dimethoxy-2-oxo-1,2-dihydroquinoline-3-carboxylic acid [2-(4-fluorophenyl)ethyl]amide]: the figures for the Ki in experiment [1] (setting [6]) and in experiment [2] (setting [7]) were 0.16 nM and 159 nM, respectively. Besides, in experiment [1] (setting [4]), the “C/S (Ki central type receptors / Ki peripheral type receptors)” value worked out at 995.

As to `CCCCCOc1cc2cc(C(=O)NCc3ccc4c(c3)OCO4)c(=O)[nH]c2cc1OC` [Example 3-33, 7-methoxy-2-oxo-6-pentyloxy-1,2-dihydroquinoline-3-carboxylic acid (3,4-methylenedioxybenzyl)amide], the Ki amounted to 1.06 nM in experiment [1] (setting [3]) and 273 nM in experiment [2] (setting [7]). Also, the “C/S (Ki central type receptors / Ki peripheral type receptors)” value in experiment [1] (setting [4]) stood at 258.

With `CCCCCOc1cc2cc(C(=O)NCCN3CCOCC3)c(=O)n(C)c2cc1OC` [Example 3-44, 1-methyl-7-methoxy-2-oxo-6-pentyloxy-1,2-dihydroquinoline-3-carboxylic acid (2-morpholinoethyl)amide], the figures for the Ki in experiment [1] (setting [3]) and in experiment [2] (setting [7]) were 0.18 nM and 193 nM, respectively. Besides, in experiment [1] (setting [4]), the “C/S (Ki central type receptors / Ki peripheral type receptors)” value is given as 1075.

On to `CCCCOc1c(OC)ccc2cc(CO)c(=O)[nH]c12` [Example 5-1, 8-butoxy-3-hydroxy methyl-7-methoxy-2-oxo-1,2-dihydroquinoline], for which the results for the Ki in experiment [1] (setting [6]) and in experiment [2] (setting [7]) were 0.45 nM and 686 nM, respectively.

In the case of `CCCCCOc1c(OC)ccc2cc(C(=O)NCCc3ccccc3F)c(=O)[nH]c12` [Example 3-19, 7-methoxy-2-oxo-8-pentyloxy-1,2-dihydroquinoline-3-carboxylic acid [2-(2-fluorophenyl)ethyl]amide], the Ki was found to be 0.18 nM in experiment [1] (setting [3]) and 49 nM in experiment [2] (setting [5]). For the same compound, in experiment [1] (setting [4]), the “C/S (Ki central type receptors / Ki peripheral type receptors)” value came to 272.

As to `CCOc1c(OC)ccc2cc(CO)c(=O)[nH]c12` [Example 5-2, 8-ethoxy-3-hydroxymethyl-7-methoxy-2-oxo-1,2-dihydroquinoline], the Ki was 0.055 nM in experiment [1] (setting [6]) and 122 nM in experiment [2] (setting [7]). The “C/S (Ki central type receptors / Ki peripheral type receptors)” value in experiment [1] (setting [4]) is on record as 2219.

For `CCCCOc1c(OC)ccc2cc(CNC(=O)Nc3ccc(F)cc3)c(=O)[nH]c12` [Example 8-1, N-[(8-butoxy-7-methoxy-2-oxo-1,2-dihydroquinoline-3-yl)methyl]-N′-(4-fluorophenyl)urea], the Ki was 0.44 nM in experiment [1] (setting [6]) and 440 nM in experiment [2] (setting [7]). For the same compound, the “C/S (Ki central type receptors / Ki peripheral type receptors)” value in experiment [1] (setting [4]) was 1000.

As to `CCCCCOc1cc2cc(C(=O)O)c(=O)n(C)c2cc1OC` [Example 2-7, 1-methyl-7-methoxy-2-oxo-6-pentyloxy-1,2-dihydroquinoline-3-carboxylic acid], the Ki in experiment [1] (setting [3]) turned out to be 0.42 nM; in experiment [2] (setting [7]) it was 381 nM. Besides, the “C/S (Ki central type receptors / Ki peripheral type receptors)” value in experiment [1] (setting [4]) is 908.

On to `CCOc1c(OC)ccc2cc(C(=O)NCCc3ccc(F)cc3)c(=O)[nH]c12` [Example 3-18, 8-ethoxy-7-methoxy-2-oxo-1,2-dihydroquinoline-3-carboxylic acid [2-(4-fluorophenyl)ethyl]amide], for which the results for the Ki in experiment [1] (setting [3]) and in experiment [2] (setting [7]) were 7.1 nM and 1750 nM, respectively. Besides, the “C/S (Ki central type receptors / Ki peripheral type receptors)” value in experiment [1] (setting [4]) stood at 247.

As for `CCCCCOc1c(OC)ccc2cc(C(=O)NCc3ccc4c(c3)OCO4)c(=O)n(C)c12` [Example 3-42, 1-methyl-7-methoxy-2-oxo-8-pentyloxy-1,2-dihydroquinoline-3-carboxylic acid (3,4-methylenedioxybenzyl) amide], the results for the Ki in experiment [1] (setting [3]) and in experiment [2] (setting [7]) were 0.22 nM and 315 nM, respectively. The “C/S (Ki central type receptors / Ki peripheral type receptors)” value in experiment [1] (setting [4]) was found to be 1430.

Consider `CCCCCOc1c(OC)ccc2cc(C(=O)NCCc3ccncc3)c(=O)[nH]c12` [Example 3-1, 7-methoxy-2-oxo-8-pentyloxy-1,2-dihydroquinoline-3-carboxylic acid (2-pyridine-4-ylethyl)amide], for which the “C/S (Ki central type receptors / Ki peripheral type receptors)” value in experiment [1] is 372. The Ki came to 0.13 ± 0.05 nM in experiment [1] (setting [3]) and 49 nM in experiment [2] (setting [5]).

Consider `CCCCOc1c(OC)ccc2cc(CNC(=O)Cc3ccc(O)cc3)c(=O)[nH]c12` [Example 8-2, N-[(8-butoxy-7-methoxy-2-oxo-1,2-dihydroquinoline-3-yl)methyl]-(4-hydroxyphenyl)acetamide], for which the Ki in experiment [1] (setting [3]) is 0.27 nM; in experiment [2] (setting [7]), 727 nM. Besides, the “C/S (Ki central type receptors / Ki peripheral type receptors)” value in experiment [1] (setting [4]) turned out to be 2692.

For the compound `CCOc1c(OC)ccc2cc(CN(C)C)c(=O)[nH]c12` [Example 7-1, 3-dimethyl aminomethyl-8-ethoxy-7-methoxy-2-oxo-1,2-dihydroquinoline], the Ki in experiment [1] (setting [6]) was determined as 0.17 nM; in experiment [2] (setting [7]), 3640 nM. The “C/S (Ki central type receptors / Ki peripheral type receptors)” value in experiment [1] (setting [4]) was 21432.

On to `CCCCCOc1c(OC)ccc2cc(C(=O)O)c(=O)n(C)c12` [Example 2-6, 1-methyl-7-methoxy-2-oxo-8-pentyloxy-1,2-dihydroquinoline-3-carboxylic acid], for which the Ki in experiment [1] (setting [3]) was 0.13 nM; in experiment [2] (setting [7]) it was 770 nM. Also, the “C/S (Ki central type receptors / Ki peripheral type receptors)” value in experiment [1] (setting [4]) came out at 5923.

For `CCCCOc1c(OC)ccc2cc(C(=O)O)c(=O)[nH]c12` [Example 2-2, 8-butoxy-7-methoxy-2-oxo-1,2-dihydroquinoline-3-carboxylic acid], the Ki amounted to 0.77 nM in experiment [1] (setting [6]) and 3250 nM in experiment [2] (setting [7]). For the same compound, the “C/S (Ki central type receptors / Ki peripheral type receptors)” value in experiment [1] (setting [4]) is 42172.

On to `CCOc1c(OC)ccc2cc(C(=O)NCCc3ccncc3)c(=O)[nH]c12` [Example 3-6, 8-ethoxy-7-methoxy-2-oxo-1,2-dihydroquinoline-3-carboxylic acid (2-pyridine-4-ylethyl)amide], for which, in experiment [2] (setting [7]), the Ki was found to be 609 nM.
